Assay results: patent US11702404B2, “GLP-1R modulating compounds” (priority 2019, dated 2023)
Where two headings read alike, the source gives them in different places.

How the values were obtained:
[1] = molecular target: GLP-1R (Homo sapiens, UniProt P43220); test: GLP-1R activation: cAMP increase in CHO cells stably expressing GLP-1R; assay type: cell-based
[2] = Microsomal stability, human liver microsomes (predicted hepatic clearance); conditions: predicted from in vitro microsomal stability data
[3] = cAMP increase, CHO cells stably expressing GLP-1R, 10 point dose response, 30 minutes incubation, read-out: EC50

Sequence of GLP-1R (P43220 24-463): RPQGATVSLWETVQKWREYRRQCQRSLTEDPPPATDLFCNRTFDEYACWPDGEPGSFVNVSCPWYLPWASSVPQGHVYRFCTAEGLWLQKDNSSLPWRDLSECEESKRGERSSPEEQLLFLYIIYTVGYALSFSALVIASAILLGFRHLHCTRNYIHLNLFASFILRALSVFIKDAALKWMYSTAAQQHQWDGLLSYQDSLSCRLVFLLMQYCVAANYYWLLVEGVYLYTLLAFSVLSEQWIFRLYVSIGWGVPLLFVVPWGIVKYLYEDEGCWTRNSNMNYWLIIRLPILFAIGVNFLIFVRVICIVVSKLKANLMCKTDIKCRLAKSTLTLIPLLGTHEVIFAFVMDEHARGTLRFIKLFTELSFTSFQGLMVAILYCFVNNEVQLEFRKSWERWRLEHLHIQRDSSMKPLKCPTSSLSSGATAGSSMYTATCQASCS

| SMILES | EC50 [1, 3] [nM] | Predicted Hepatic Clearance (Pred. Cl.) [2] [mL/min/kg] | EC50 ([1]; EC50 (nM)) [nM] |
| --- | --- | --- | --- |
| COCCn1c(Cc2ccc(-c3cccc(OCc4cccc(OC(F)F)c4)n3)cc2F)nc2ccc(C(=O)O)cc21 [Example 505, 2-(4-(6-((3-(difluoromethoxy)benzyl)oxy)pyridin-2-yl)-2-fluorobenzyl)-1-(2-methoxyethyl)-1H-benzo[d]imidazole-6-carboxylic acid] | 41.2 | <1.83 |  |
| COCCn1c(Cc2ccc(-c3cccc(OCc4ccccc4NC(=O)OC(C)(C)C)n3)cc2F)nc2ccc(C(=O)O)cc21 [Example 506, 2-(4-(6-((2-((tert-butoxycarbonyl)amino)benzyl)oxy)pyridin-2-yl)-2-fluorobenzyl)-1-(2-methoxyethyl)-1H-benzo[d]imidazole-6-carboxylic acid] | 2180 | 12.5 |  |
| COCCn1c(Cc2ccc(-c3cccc(OCc4ccccc4C(F)F)n3)cc2F)nc2ccc(C(=O)O)cc21 [Example 507, 2-(4-(6-((2-(difluoromethyl)benzyl)oxy)pyridin-2-yl)-2-fluorobenzyl)-1-(2-methoxyethyl)-1H-benzo[d]imidazole-6-carboxylic acid] | 361 | 19.2 |  |
| COCCn1c(Cc2ccc(-c3cccc(OCc4cccc(COC)c4)n3)cc2F)nc2ccc(C(=O)O)cc21 [Example 509, 2-(2-fluoro-4-(6-((3-(methoxymethyl)benzyl)oxy)pyridin-2-yl)benzyl)-1-(2-methoxyethyl)-1H-benzo[d]imidazole-6-carboxylic acid] | 102 | 12 |  |
| COCCn1c(Cc2ccc(-c3cccc(OCc4nccn4C)n3)cc2F)nc2ccc(C(=O)O)cc21 [Example 512, 2-(2-fluoro-4-(6-((1-methyl-1H-imidazol-2-yl)methoxy)pyridin-2-yl)benzyl)-1-(2-methoxyethyl)-1H-benzo[d]imidazole-6-carboxylic acid] | 6560 | 7.67 |  |
| COCCn1c(Cc2ccc(-c3cccc(OCn4ccc(C#N)cc4=O)n3)cc2F)nc2ccc(C(=O)O)cc21 [Example 513, 2-(4-(6-((4-cyano-2-oxopyridin-1(2H)-yl)methoxy)pyridin-2-yl)-2-fluorobenzyl)-1-(2-methoxyethyl)-1H-benzo[d]imidazole-6-carboxylic acid] | 55.1 | 5.17 |  |
| COCCn1c(Cc2ccc(-c3cccc(OCc4ccccc4F)n3)cc2F)nc2ccc(C(=O)O)cc21 [Example 514, 2-(2-fluoro-4-(6-((2-fluorobenzyl)oxy)pyridin-2-yl)benzyl)-1-(2-methoxyethyl)-1H-benzo[d]imidazole-6-carboxylic acid] | 60.8 | 15.2 |  |
| COCCn1c(Cc2ccc(-c3cccc(O[C@H](C)c4ccccc4)n3)cc2F)nc2ccc(C(=O)O)cc21 [Example 515, (R)-2-(2-fluoro-4-(6-(1-phenylethoxy)pyridin-2-yl)benzyl)-1-(2-methoxyethyl)-1H-benzo[d]imidazole-6-carboxylic acid] | 876 | 7.5 |  |
| COCCn1c(Cc2ccc(-c3cccc(OCc4ccccc4NS(C)(=O)=O)n3)cc2F)nc2ccc(C(=O)O)cc21 [Example 516, 2-(2-fluoro-4-(6-((2-(methylsulfonamido)benzyl)oxy)pyridin-2-yl)benzyl)-1-(2-methoxyethyl)-1H-benzo[d]imidazole-6-carboxylic acid] | 2460 | <1.83 |  |
| COCCn1c(Cc2ncc(-c3cccc(OCc4ccc(C#N)cc4F)n3)cc2Cl)nc2ccc(C(=O)O)cc21 [Example 518, 2-((5′-chloro-6-((4-cyano-2-fluorobenzyl)oxy)-[2,3′-bipyridin]-6′-yl)methyl)-1-(2-methoxyethyl)-1H-benzo[d]imidazole-6-carboxylic acid] | 43.1 | 5.33 |  |
| CCn1cncc1Cn1c(Cc2ccc(-c3cccc(OCc4ccc(C#N)cc4F)n3)cc2C#N)nc2ccc(C(=O)O)cc21 [Example 522, 2-(2-cyano-4-(6-((4-cyano-2-fluorobenzyl)oxy)pyridin-2-yl)benzyl)-1-((1-ethyl-1H-imidazol-5-yl)methyl)-1H-benzo[d]imidazole-carboxylic acid] | 137 | <1.83 |  |
| CCn1nccc1Cn1c(Cc2ccc(-c3cccc(OCc4ccc(C#N)cc4F)n3)cc2F)nc2ccc(C(=O)O)cc21 [Example 524, 2-(4-(6-((4-cyano-2-fluorobenzyl)oxy)pyridin-2-yl)-2-fluorobenzyl)-1-((l-ethyl-1H-pyrazol-5-yl)methyl)-1H-benzo[d]imidazole-6-carboxylic acid] | 66.5 | 7.17 |  |
| COCCn1c(Cc2ccc(-c3cccc(OCc4ccc(C#N)cc4F)n3)c(C#N)c2)nc2ccc(C(=O)O)cc21 [Example 526, 2-(3-cyano-4-(6-((4-cyano-2-fluorobenzyl)oxy)pyridin-2-yl)benzyl)-1-(2-methoxyethyl)-1H-benzo[d]imidazole-6-carboxylic acid] |  | 7.5 | 70.9 |

Now from value to compound, other results behind:

| EC50 [1, 3] [nM] | Predicted Hepatic Clearance (Pred. Cl.) [2] [mL/min/kg] | SMILES | EC50 ([1]; EC50 (nM)) [nM] |
| --- | --- | --- | --- |
| 16.5 | 2.5 | COCCn1c(Cc2ccc(-c3cccc(OCc4ccc(C(F)(F)F)cc4)n3)cc2F)nc2ccc(C(=O)O)cc21 [Example 508, 2-(2-fluoro-4-(6-((4-(trifluoromethyl)benzyl)oxy)pyridin-2-yl)benzyl)-1-(2-methoxyethyl)-1H-benzo[d]imidazole-6-carboxylic acid] |  |
| 29.7 | 18.7 | COCCn1c(Cc2ccc(-c3cccc(OCc4cccnc4OC)n3)cc2F)nc2ccc(C(=O)O)cc21 [Example 511, 2-(2-fluoro-4-(6-((2-methoxypyridin-3-yl)methoxy)pyridin-2-yl)benzyl)-1-(2-methoxyethyl)-1H-benzo[d]imidazole-6-carboxylic acid] |  |
| 0.06 | <1.83 | O=C(O)c1ccc2nc(Cc3cc(F)c(-c4cccc(OCc5ccc(C(F)(F)F)cc5)n4)cc3F)n(C[C@@H]3CCO3)c2c1 [Example 517, (S)-2-(2,5-difluoro-4-(6-((4-(trifluoromethyl)benzyl)oxy)pyridin-2-yl)benzyl)-1-(oxetan-2-ylmethyl)-1H-benzo[d]imidazole-6-carboxylic acid] |  |
| 39.3 | 3.5 | CCn1c(Cn2c(Cc3ccc(-c4cccc(OCc5ccc(C#N)cc5F)n4)cc3F)nc3ccc(C(=O)O)cc32)cnc1C [Example 519, 2-(4-(6-((4-cyano-2-fluorobenzyl)oxy)pyridin-2-yl)-2-fluorobenzyl)-1-((l-ethyl-2-methyl-1H-imidazol-5-yl)methyl)-1H-benzo[d]imidazole-6-carboxylic acid] |  |
| 0.36 | 6.25 | CCn1cncc1Cn1c(Cc2ccc(-c3cccc(OCc4ccc(C#N)cc4F)n3)c(F)c2)nc2ccc(C(=O)O)cc21 [Example 520, 2-(4-(6-((4-cyano-2-fluorobenzyl)oxy)pyridin-2-yl)-3-fluorobenzyl)-1-((1-ethyl-1H-imidazol-5-yl)methyl)-1H-benzo[d]imidazole-6-carboxylic acid] |  |
| 0.54 | 6.75 | N#Cc1ccc(COc2cccc(-c3ccc(Cc4nc5ccc(C(=O)O)cc5n4CC4(CF)CC4)cc3F)n2)c(F)c1 [Example 521, 2-(4-(6-((4-cyano-2-fluorobenzyl)oxy)pyridin-2-yl)-3-fluorobenzyl)-1-((1-(fluoromethyl)cyclopropyl)methyl)-1H-benzo[d]imidazole-6-carboxylic acid] |  |
| 0.51 | 5 | N#Cc1ccc(COc2cccc(-c3ccc(Cc4nc5ccc(C(=O)O)cc5n4C[C@@H]4CCO4)cc3F)n2)c(F)c1 [Example 523, (S)-2-(4-(6-((4-cyano-2-fluorobenzyl)oxy)pyridin-2-yl)-3-fluorobenzyl)-1-(oxetan-2-ylmethyl)-1H-benzo[d]imidazole-6-carboxylic acid] |  |
| 0.6 | 2 | CCn1cncc1Cn1c(Cc2ccc(-c3cccc(OCc4ccc(C#N)cc4F)n3)cc2F)nc2ccc(C(=O)O)cc21 [Example 525, 2-(4-(6-((4-cyano-2-fluorobenzyl)oxy)pyridin-2-yl)-2-fluorobenzyl)-1-((1-ethyl-1H-imidazol-5-yl)methyl)-1H-benzo[d]imidazole-6-carboxylic acid] |  |
| 1.84 | 3.67 | CCn1cncc1Cn1c(Cc2ccc(-c3cccc(OCc4ccc(C#N)cc4F)c3)cc2F)nc2ccc(C(=O)O)cc21 [Example 527, 2-((3′-((4-cyano-2-fluorobenzyl)oxy)-3-fluoro-[1,1′-biphenyl]-4-yl)methyl)-1-((1-ethyl-1H-imidazol-5-yl)methyl)-1H-benzo[d]imidazole-6-carboxylic acid] |  |
| 0.45 | 7.5 | N#Cc1ccc(COc2cccc(-c3ccc(Cc4nc5ccc(C(=O)O)cc5n4CC4(C(F)F)CC4)cc3F)n2)c(F)c1 [Example 528, 2-(4-(6-((4-cyano-2-fluorobenzyl)oxy)pyridin-2-yl)-3-fluorobenzyl)-1-((1-(difluoromethyl)cyclopropyl)methyl)-1H-benzo[d]imidazole-6-carboxylic acid] |  |
| 0.43 | 10.5 | N#CCC1(Cn2c(Cc3ccc(-c4cccc(OCc5ccc(C#N)cc5F)n4)c(F)c3)nc3ccc(C(=O)O)cc32)CC1 [Example 530, 2-(4-(6-((4-cyano-2-fluorobenzyl)oxy)pyridin-2-yl)-3-fluorobenzyl)-1-((1-(cyanomethyl)cyclopropyl)methyl)-1H-benzo[d]imidazole-6-carboxylic acid] |  |
| 12.8 | 2.25 | N#Cc1ccc(COc2cccc(-c3ccc(Cc4nc5ccc(C(=O)O)cc5n4Cc4ccccc4)c(F)c3)n2)c(F)c1 [Example 531, 1-benzyl-2-(4-(6-((4-cyano-2-fluorobenzyl)oxy)pyridin-2-yl)-2-fluorobenzyl)-1H-benzo[d]imidazole-6-carboxylic acid] |  |
